Results published in patent US6339045B1, “N-(unsubstituted or substituted)-4-substituted-6-(unsubstituted or substituted)phenoxy-2-pyridinecarboxamides or thiocarboxamides, processes for producing the same, and herbicides” (Kureha Kagaku Kogyo Kabushiki Kaisha, priority 1995, dated 2002).

How the values were obtained:
Experiment in all cases: Herbicidal effect by foliage and soil treatment
Assay type in all cases: in vivo
Conditions in all cases: 10 g ai/10a, evaluated after 14 days
[1] = system: black nightshade (Solanum nigrum)
From the text: (§1) Experiment for Determination of Herbicidal Effect by Foliate and Soil Treatment Seeds of redroot pigweed (Amaranthus retroflexus), common blackjack (Bidens pilosa), kediock (Sinapis arvensis), common chickweed (Stellaria media), sicklepod (Cassia obtusifolia), black nightshade (Solanum nigrum), velvetleaf (Abutilon theophrasti), field bindweed (Convolvulus arvensis), wild chamomile (Matricaria chamomilla), cleavers (Galium aparine) and […] (Veronica hederaefolia), were uniformly sowed over a horticultural granular soil (produced by KUREHA CHEMICAL INDUSTRY, CO., LTD.; the same soil was used hereinafter) filled in a planter. The planter was placed in a greenhouse (maintained at 19 to 25° C.) to sprout these plants. Two seedlings of each sprouted plant were transplanted to a 10 cm-diameter pot filled with the horticultural granular soil and cultivated in the greenhouse (maintained at 19 to 25° C.) until reaching a cotyledonal to bifoliate period suited to the foliage and soil treatment. […] Next, additional amounts of Tween 20 and water were added to the obtained solution or suspension to produce a test solution. The plants prepared in the above (1) were placed within a frame having a predetermined inside area, and uniformly sprayed with the test solution using a sprayer such that the amount of each compound applied was controlled to a predetermined level. The plants sprayed with the test solution were placed again in the greenhouse (maintained at 19 to 25° C.) and cultivated therein. After 14 days, the degree of growth of each plant cultivated in the treated region was compared with that of plant cultivated in non-treated region, and evaluated according to the following ratings. The herbicidal activity of each test compound was represented by these ratings

[2] = system: cleavers (Galium aparine)
From the text: as §1

[3] = system: common blackjack (Bidens pilosa)
From the text: as §1

[4] = system: common chickweed (Stellaria media)
From the text: as §1

[5] = system: field bindweed (Convolvulus arvensis)
From the text: as §1

[6] = system: ivyleafspeedwell (Veronica hederaefolia)
From the text: as §1

[7] = system: kediock (Sinapis arvensis)
From the text: as §1

[8] = system: redroot pigweed (Amaranthus retroflexus)
From the text: as §1

[9] = system: sicklepod (Cassia obtusifolia)
From the text: as §1

[10] = system: velvetleaf (Abutilon theophrasti)
From the text: as §1

[11] = system: wild chamomile (Matricaria chamomilla)
From the text: as §1

For `COc1cc(Oc2cccc(C(F)(F)F)c2)nc(C(=O)NN(C)C)c1` [Compound I-109], the “herbicidal activity rating, SN (Solanum nigrum)” value (“herbicidal activity rating, SN” below) [1] was 5 (percentage of weeds killed was not less than 80%), the “herbicidal activity rating, GA (Galium aparine)” value (from here on “herbicidal activity rating, GA”) [2] was 5 (percentage of weeds killed was not less than 80%) and the “herbicidal activity rating, BP (Bidens pilosa)” value (shortened to “herbicidal activity rating, BP”) [3] was 5 (percentage of weeds killed was not less than 80%). For the same compound, the “herbicidal activity rating, SM (Stellaria media)” value (“herbicidal activity rating, SM” for short) [4] was 4 (percentage of weeds killed was not less than 60% and less than 80%), the “herbicidal activity rating, CA (Convolvulus arvensis)” value (from here on “herbicidal activity rating, CA”) [5] was 4 (percentage of weeds killed was not less than 60% and less than 80%) and the “herbicidal activity rating, VH (Veronica hederaefolia)” value (“herbicidal activity rating, VH” for short) [6] was 5 (percentage of weeds killed was not less than 80%). For the same compound, the “herbicidal activity rating, SA (Sinapis arvensis)” value (“herbicidal activity rating, SA” below) [7] was 5 (percentage of weeds killed was not less than 80%), the “herbicidal activity rating, AR (Amaranthus retroflexus)” value (“herbicidal activity rating, AR” below) [8] was 5 (percentage of weeds killed was not less than 80%) and the “herbicidal activity rating, CO (Cassia obtusifolia)” value (from here on “herbicidal activity rating, CO”) [9] was 5 (percentage of weeds killed was not less than 80%). For the same compound, the “herbicidal activity rating, AT (Abutilon theophrasti)” value [10] was 5 (percentage of weeds killed was not less than 80%) and the “herbicidal activity rating, MC (Matricaria chamomilla)” value (shortened to “herbicidal activity rating, MC”) [11] was 4 (percentage of weeds killed was not less than 60% and less than 80%).

In the case of `COc1cc(Oc2cccc(C(F)(F)F)c2)nc(C(=O)NNC(C)(C)C)c1` [Compound I-126], the “herbicidal activity rating, SN” value [1] was 5 (percentage of weeds killed was not less than 80%), the “herbicidal activity rating, GA” value [2] was 5 (percentage of weeds killed was not less than 80%) and the “herbicidal activity rating, BP” value [3] was 5 (percentage of weeds killed was not less than 80%). For the same compound, the “herbicidal activity rating, SM” value [4] was 5 (percentage of weeds killed was not less than 80%), the “herbicidal activity rating, CA” value [5] was 4 (percentage of weeds killed was not less than 60% and less than 80%) and the “herbicidal activity rating, VH” value [6] was 5 (percentage of weeds killed was not less than 80%). The “herbicidal activity rating, SA” value [7] was 5 (percentage of weeds killed was not less than 80%), the “herbicidal activity rating, AR” value [8] was 5 (percentage of weeds killed was not less than 80%) and the “herbicidal activity rating, CO” value [9] was 5 (percentage of weeds killed was not less than 80%). The “herbicidal activity rating, AT (Abutilon theophrasti)” value [10] was 5 (percentage of weeds killed was not less than 80%) and the “herbicidal activity rating, MC” value [11] was 4 (percentage of weeds killed was not less than 60% and less than 80%).

In the case of `CCC(C)NC(=O)c1cc(OC)cc(Oc2cccc(C(F)(F)F)c2)n1` (stereo not drawn) [Compound I-73], the “herbicidal activity rating, SN” value [1] was 5 (percentage of weeds killed was not less than 80%), the “herbicidal activity rating, GA” value [2] was 5 (percentage of weeds killed was not less than 80%) and the “herbicidal activity rating, BP” value [3] was 4 (percentage of weeds killed was not less than 60% and less than 80%). For the same compound, the “herbicidal activity rating, SM” value [4] was 5 (percentage of weeds killed was not less than 80%), the “herbicidal activity rating, CA” value [5] was 5 (percentage of weeds killed was not less than 80%) and the “herbicidal activity rating, VH” value [6] was 5 (percentage of weeds killed was not less than 80%). For the same compound, the “herbicidal activity rating, SA” value [7] was 5 (percentage of weeds killed was not less than 80%), the “herbicidal activity rating, AR” value [8] was 5 (percentage of weeds killed was not less than 80%) and the “herbicidal activity rating, CO” value [9] was 5 (percentage of weeds killed was not less than 80%). For the same compound, the “herbicidal activity rating, AT (Abutilon theophrasti)” value [10] was 5 (percentage of weeds killed was not less than 80%) and the “herbicidal activity rating, MC” value [11] was 4 (percentage of weeds killed was not less than 60% and less than 80%).

`COc1cc(Oc2cccc(C(F)(F)F)c2)nc(C(=O)N(C)OC)c1` [Compound I-203] was tested, and the “herbicidal activity rating, SN” value [1] was 5 (percentage of weeds killed was not less than 80%), the “herbicidal activity rating, GA” value [2] was 5 (percentage of weeds killed was not less than 80%) and the “herbicidal activity rating, BP” value [3] was 3 (percentage of weeds killed was not less than 40% and less than 60%). For the same compound, the “herbicidal activity rating, SM” value [4] was 4 (percentage of weeds killed was not less than 60% and less than 80%), the “herbicidal activity rating, CA” value [5] was 4 (percentage of weeds killed was not less than 60% and less than 80%) and the “herbicidal activity rating, VH” value [6] was 5 (percentage of weeds killed was not less than 80%). For the same compound, the “herbicidal activity rating, SA” value [7] was 5 (percentage of weeds killed was not less than 80%), the “herbicidal activity rating, AR” value [8] was 5 (percentage of weeds killed was not less than 80%) and the “herbicidal activity rating, CO” value [9] was 5 (percentage of weeds killed was not less than 80%). The “herbicidal activity rating, AT (Abutilon theophrasti)” value [10] was 4 (percentage of weeds killed was not less than 60% and less than 80%) and the “herbicidal activity rating, MC” value [11] was 2 (percentage of weeds killed was not less than 20% and less than 40%).

With `COc1cc(Oc2cccc(C(F)(F)F)c2)nc(C(=O)Nc2ccc(F)cc2)c1` [Compound I-11] the “herbicidal activity rating, SN” value [1] was 5 (percentage of weeds killed was not less than 80%), the “herbicidal activity rating, GA” value [2] was 5 (percentage of weeds killed was not less than 80%) and the “herbicidal activity rating, BP” value [3] was 5 (percentage of weeds killed was not less than 80%). The “herbicidal activity rating, SM” value [4] was 4 (percentage of weeds killed was not less than 60% and less than 80%), the “herbicidal activity rating, CA” value [5] was 4 (percentage of weeds killed was not less than 60% and less than 80%) and the “herbicidal activity rating, VH” value [6] was 5 (percentage of weeds killed was not less than 80%). The “herbicidal activity rating, SA” value [7] was 5 (percentage of weeds killed was not less than 80%), the “herbicidal activity rating, AR” value [8] was 5 (percentage of weeds killed was not less than 80%) and the “herbicidal activity rating, CO” value [9] was 5 (percentage of weeds killed was not less than 80%). For the same compound, the “herbicidal activity rating, AT (Abutilon theophrasti)” value [10] was 3 (percentage of weeds killed was not less than 40% and less than 60%) and the “herbicidal activity rating, MC” value [11] was 4 (percentage of weeds killed was not less than 60% and less than 80%).

In the case of `COc1cc(Oc2cccc(C(F)(F)F)c2)nc(C(=O)NCCOCCF)c1` [Compound I-90], the “herbicidal activity rating, SN” value [1] was 5 (percentage of weeds killed was not less than 80%), the “herbicidal activity rating, GA” value [2] was 5 (percentage of weeds killed was not less than 80%) and the “herbicidal activity rating, BP” value [3] was 5 (percentage of weeds killed was not less than 80%). For the same compound, the “herbicidal activity rating, SM” value [4] was 5 (percentage of weeds killed was not less than 80%), the “herbicidal activity rating, CA” value [5] was 4 (percentage of weeds killed was not less than 60% and less than 80%) and the “herbicidal activity rating, VH” value [6] was 5 (percentage of weeds killed was not less than 80%). The “herbicidal activity rating, SA” value [7] was 5 (percentage of weeds killed was not less than 80%), the “herbicidal activity rating, AR” value [8] was 5 (percentage of weeds killed was not less than 80%) and the “herbicidal activity rating, CO” value [9] was 5 (percentage of weeds killed was not less than 80%). For the same compound, the “herbicidal activity rating, AT (Abutilon theophrasti)” value [10] was 3 (percentage of weeds killed was not less than 40% and less than 60%) and the “herbicidal activity rating, MC” value [11] was 2 (percentage of weeds killed was not less than 20% and less than 40%).
